Common to all, as to assay: growth of human tumour cells (NCI), 48 h
Assay [1] has as its system UACC-62 melanoma.
Assay [2] concerns RPMI-8226 leukemia.
For assay [3], the system named is K-562 leukemia.
For assay [4], the system named is MDA-MB-435.
Assay [5] concerns KM12 colon.
The subject of assay [6] is HS 578T breast.
Assay [7] concerns OVCAR-8 ovarian.
The test system of assay [8] is RXF 393 renal.
Assay [9] concerns DU-145 prostate.
Assay [10] relates to MDA-N.

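Grown in 96-well plates, cells were treated for 48 hours with each compound at five concentrations. Insufficient inhibition: endpoint recorded as highest concentration tested. GI50: concentration for 50% inhibition of growth. TGI: concentration producing complete growth inhibition.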 Some results are limits rather than exact numbers.

Regarding `O=C1CN2Cc3cc(N4CCOCC4)ccc3N=C2N1`, the TGI in assay [1], in assay [2], in assay [3], in [4], in assay [5] and in assay [6] was over 100 µM in each case. In addition, the TGI in assay [7], in [8] and in assay [9] was over 100 µM in each case.

Take `CCCCC(=O)Nc1ccc2cc(C(=O)OC)c(ON3C(=O)c4ccccc4C3=O)nc2n1`: the TGI in [2] is over 100 µM; in [3], over 100 µM; in assay [4], over 100 µM; in [5] it was over 100 µM; in [7], 58.4 µM; in assay [8] it was 52.3 µM. Besides, the TGI in assay [10] stood at 80.7 µM.

For `CCCCc1c2c(nc3c1CCCC3O)/C(=C/c1ccccc1)CCC2` (stereo unspecified), the TGI in [1] was 95.7 µM; in [2], 46.2 µM; in assay [3], 40.5 µM; in assay [5], 36.8 µM; in assay [7] it was over 100 µM; in [8], 71.7 µM.

Take `NCCCNc1nc2ccccc2c2c(=O)c3cc(C(F)(F)F)ccc3sc12`: the GI50 was 1.68 µM in assay [1]; 2.06 µM in assay [2]; 1.65 µM in [4]; 1.38 µM in assay [8]; 1.82 µM in assay [9]. Further, the TGI in assay [1] turned out to be 3.09 µM; in [2] it was 4.71 µM; in [4], 3.06 µM; in assay [8], 2.72 µM; in [9], 3.26 µM.

With `COCC1CCCN1c1ccc(/C=C(/C#N)C(N)=S)cc1` (stereo unspecified), the GI50 in assay [3] was 30.2 µM; in assay [4], 15 µM; in [5], 39.5 µM; in assay [6] it was over 100 µM; in assay [7], over 100 µM; in [8] it was over 100 µM. Besides, in [9], the GI50 was over 100 µM. The TGI in assay [3], in assay [4], in [5], in assay [6], in [7] and in assay [8] was over 100 µM throughout. Moreover, in [9], the TGI was over 100 µM.

With `COc1cccc(NC(=S)Nn2c(C)nc3ccccc3c2=O)c1`, the TGI in assay [1], in assay [2], in assay [3], in assay [5], in assay [7] and in [8] was over 100 µM each time.

`CCCCC(C)C1CCC2(C)C=CC(=O)C(C)=C2C1O` (stereo unspecified): the TGI in assay [1], in [2], in assay [3], in assay [5], in assay [7] and in [8] was over 100 µM each time.

In the case of `CCCn1c(SCC)c2ccccc2c1-c1nc(F)nc(F)n1`, the TGI in assay [2], in assay [3], in assay [5] and in assay [8] was over 100 µM each time.

`Clc1ccc(SCCSCCCCCCCCCCSCCSc2ccc(Cl)cc2)cc1`: the TGI in assay [1], in [2], in [3], in assay [5], in [7] and in assay [8] was over 100 µM throughout.

As for `COC(OC)c1cccc2c1C(=O)CCC1(O)c3ccccc3C1C2` (stereo unspecified), the TGI is over 100 µM in [1]; 69.8 µM in assay [2]; over 100 µM in assay [3]; over 100 µM in assay [5]; over 100 µM in assay [7].

Consider `COc1ccc(C2C3C(=O)C=CC(=O)C3[C@@H]2C)cc1OC` (stereo partly specified), for which the TGI in assay [1] was over 100 µM; in assay [2] it was 63.1 µM; in [3], over 100 µM; in [5] it was over 100 µM; in assay [7], over 100 µM; in assay [8], over 100 µM.

Consider `COc1cc(C2c3cc4c(cc3OC(Nc3ccc(C(=O)O)cc3)C2C)OCO4)cc(OC)c1OC` (stereo unspecified), for which the TGI in [1] was over 61.9 µM; in assay [2], 25 µM; in [4] it was 0.265 µM; in assay [5], 1.66 µM; in assay [7], over 100 µM; in assay [8] it was 92 µM.

In the case of `OC12COc3ccccc3C1Oc1ccccc1C2` (stereo unspecified), the TGI in [1], in [2], in [3], in assay [4], in assay [5] and in assay [7] was over 100 µM each time. In addition, the TGI in assay [9] and in assay [10] was over 100 µM throughout.

As for `COc1cc2c(c(C)c1O)[C@H]1COc3ccccc3[C@H]1O2`, the TGI in assay [2] was 75.3 µM; in assay [3], 56.5 µM; in [5], over 100 µM; in assay [7] it was 67.3 µM; in assay [8] it was 54 µM.

`O=C1/C(=C\c2cccc(Oc3ccccc3)c2)S(=O)(=O)C(c2ccccc2)N1c1ccc(Cl)cc1` (stereo unspecified): the TGI is 57 µM in [1]; over 100 µM in [2]; 56.9 µM in assay [3]; 25.4 µM in assay [4]; over 100 µM in assay [5]; 37.3 µM in [7]. Moreover, the TGI in assay [8] stood at 29.4 µM; in assay [9], 37.4 µM; in [10], 29 µM.

For the compound `NC(=O)N1N=C2c3ccccc3CC[C@@H]2C1c1ccccc1` (stereo partly specified), the TGI in [1], in [2], in [3], in assay [5], in [7] and in assay [8] was over 100 µM in each case.

Consider `N#Cc1c(-c2ccco2)cc(-c2ccc(NCc3nc4ccccc4[nH]3)cc2)nc1N`, for which the TGI was 45.1 µM in assay [1]; 62 µM in assay [2]; 71.7 µM in assay [3]; 38 µM in assay [5]; 46.3 µM in assay [7]; 68.5 µM in [8].

As for `COC(=O)C1=C(C(=O)OC)C2(OC(C)=O)c3ccccc3-c3ccccc3C12` (stereo unspecified), the TGI in assay [1] is 24.4 µM; in assay [2], 6.56 µM; in assay [5] it was 26.8 µM; in [7], 12.2 µM; in assay [8], 9.17 µM.

`COC1=CC(=O)[C@H]2[C@H](C)C(c3ccccc3)[C@@]2(C)C1=O` (stereo partly specified): the TGI in assay [1], in [2], in [3], in assay [5], in [7] and in assay [8] was over 100 µM throughout.

Regarding `CCCc1c(OC)c(=O)c2c(OC)cc(OC)c3c4c(OC)cc(OC)c5c(=O)c(OC)c(CCC)c(c1c23)c54`, the TGI in [1] was found to be 24.1 µM; in assay [4] it was 29.6 µM; in assay [5], 34.1 µM; in assay [7], 40.8 µM; in assay [8], 69.1 µM; in assay [9], 24.6 µM. In [10], the TGI stood at 32.9 µM.

On to `Cc1cccc2c1Oc1cc(Cl)ccc1C2NC(=O)CCN1CCN(CCO)CC1` (stereo unspecified), for which the TGI is 28.7 µM in assay [1]; 40.6 µM in assay [3]; 27.5 µM in assay [4]; 11.5 µM in [5]; 26.3 µM in assay [7]; 61.2 µM in assay [9]. Moreover, the TGI in [10] was 14.6 µM.

As to `Cc1cn(C2CCC(/C=N\O)O2)c(=O)[nH]c1=O` (stereo unspecified), the TGI in assay [1], in assay [2], in assay [3], in assay [4], in assay [5] and in assay [7] was over 100 µM in each case. In addition, the TGI in assay [8], in [9] and in assay [10] was over 100 µM each time.

For `CCCC/C=C/C1Cc2ccccc2CN1S(=O)(=O)c1ccc(C)cc1` (stereo unspecified), the TGI in assay [1] was 27.5 µM; in assay [2], 5.72 µM; in assay [3] it was over 100 µM; in [5], 22.1 µM; in assay [7] it was 28.6 µM; in assay [8] it was 23.9 µM.

With `CC(OC(=O)NCn1cc(-c2ccccc2)nn1)c1ccccc1` (stereo unspecified), the TGI in assay [2] is over 100 µM; in [3], 75.5 µM; in assay [4] it was over 100 µM; in assay [5] it was over 100 µM; in assay [7], over 100 µM; in assay [9] it was over 100 µM.

As to `COc1nc(SC)nc2c1cnn2C1OC(C(O)CO)C(OC)C1O` (stereo unspecified), the TGI in assay [1], in assay [2], in assay [3], in [5], in assay [7] and in assay [8] was over 100 µM each time.

With `CC(=O)O/N=C/c1ncccc1OC(C)=O`, the TGI in assay [1], in assay [3], in assay [5], in assay [7] and in assay [8] was over 100 µM throughout.

For the compound `Nc1nc(SCCNC(=O)CCc2ccc(O)cc2)nc2c1ncn2C1OC(CO)C(O)C1O` (stereo unspecified), the TGI in [1], in [2], in assay [3], in assay [5] and in [7] was over 203 µM each time.

For the compound `COc1cc(C2C(Cl)C(=O)N2NC(=O)c2ccccc2O)ccc1O` (stereo unspecified), the TGI in assay [1], in assay [3], in assay [5], in [7] and in assay [8] was over 100 µM each time.
